{"source": "paper PMC10688023", "about": "(Journal of chemical information and modeling, 2023)", "key": {"recombinant human BChE [1]": {"target": "T1, recombinant human BChE (Homo sapiens, UniProt P06276)", "T1 sequence (P06276 29-602)": "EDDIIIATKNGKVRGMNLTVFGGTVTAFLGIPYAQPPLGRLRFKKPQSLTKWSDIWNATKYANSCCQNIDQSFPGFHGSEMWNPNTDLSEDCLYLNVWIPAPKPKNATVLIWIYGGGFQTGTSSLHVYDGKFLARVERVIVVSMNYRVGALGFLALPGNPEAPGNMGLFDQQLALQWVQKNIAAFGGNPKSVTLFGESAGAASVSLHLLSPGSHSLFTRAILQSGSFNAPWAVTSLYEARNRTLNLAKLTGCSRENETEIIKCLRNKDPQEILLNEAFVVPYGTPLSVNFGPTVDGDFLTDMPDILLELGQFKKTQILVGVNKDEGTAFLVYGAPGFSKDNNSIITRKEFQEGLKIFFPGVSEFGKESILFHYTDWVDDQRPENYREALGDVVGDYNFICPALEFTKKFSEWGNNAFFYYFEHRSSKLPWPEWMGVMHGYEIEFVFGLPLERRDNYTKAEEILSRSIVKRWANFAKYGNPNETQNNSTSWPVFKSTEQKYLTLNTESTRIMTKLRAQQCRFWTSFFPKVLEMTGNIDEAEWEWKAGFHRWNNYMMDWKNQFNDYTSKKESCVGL"}, "recombinant human BChE [2]": {"target": "T1, recombinant human BChE", "assay_type": "biochemical", "conditions": "for BChE inhibitory effect (activity call): active in colorimetric assay and in fluorescence assay"}, "recombinant human AChE [3]": {"target": "T2, recombinant human AChE (Homo sapiens, UniProt P22303)", "T2 sequence (P22303 32-614)": "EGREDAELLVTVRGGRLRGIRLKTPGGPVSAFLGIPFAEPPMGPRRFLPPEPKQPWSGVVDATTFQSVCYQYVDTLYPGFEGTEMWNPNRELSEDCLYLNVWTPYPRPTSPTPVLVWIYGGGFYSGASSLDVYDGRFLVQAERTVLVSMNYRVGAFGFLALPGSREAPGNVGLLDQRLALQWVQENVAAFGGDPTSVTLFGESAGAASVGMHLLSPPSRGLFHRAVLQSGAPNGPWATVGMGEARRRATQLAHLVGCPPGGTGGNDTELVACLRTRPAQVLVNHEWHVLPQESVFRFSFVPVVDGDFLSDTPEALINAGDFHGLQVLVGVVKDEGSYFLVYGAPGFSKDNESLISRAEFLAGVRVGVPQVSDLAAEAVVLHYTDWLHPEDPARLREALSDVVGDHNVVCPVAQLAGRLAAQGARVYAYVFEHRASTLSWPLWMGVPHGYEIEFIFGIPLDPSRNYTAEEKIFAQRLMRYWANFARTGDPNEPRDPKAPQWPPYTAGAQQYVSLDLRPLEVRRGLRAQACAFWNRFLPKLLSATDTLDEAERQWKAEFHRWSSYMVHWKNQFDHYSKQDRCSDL"}, "recombinant human AChE [4]": {"target": "T2, recombinant human AChE", "conditions": "fluorescence-based assay"}, "BChE": {"tested_on": "BChE", "conditions": "cited from earlier work"}, "AChE": {"tested_on": "AChE", "conditions": "ref [8], cited from earlier work"}}, "note": "Counter-ions that a name gives are not always drawn. Like-named read-outs stand apart in the source and are kept apart here."}
{"smiles": "Cc1ccc(C)c(-n2cc(CN(C)CCO)c(-c3ccccc3)n2)c1", "note": "[NCGC00425816]", "values": [{"measurement": "selectivity index (SI)", "setting": "recombinant human BChE [1]; BChE over AChE", "result": "1250-2351"}, {"measurement": "efficacy, BChE inhibition", "setting": "recombinant human BChE [1]; colorimetric assay", "result": "98.9%±3.21"}, {"measurement": "IC50", "setting": "recombinant human BChE [1]; read-out: IC50, BChE inhibition, colorimetric assay", "result": "0.04 ± 0.01", "unit": "µM"}, {"measurement": "efficacy, BChE inhibition", "setting": "recombinant human BChE [2]; fluorescence-based assay", "result": "109%±6.76"}, {"measurement": "IC50", "setting": "recombinant human BChE [2]; read-out: IC50, BChE inhibition, fluorescence-based assay", "result": "0.08 ± 0.01", "unit": "µM"}]}
{"smiles": "O=C(NCc1ccnc(N2CCCC2)c1)C1CCCN(c2cc(-n3cncn3)ncn2)C1", "note": "(stereo not drawn) [NCGC00526830]", "values": [{"measurement": "selectivity index (SI)", "setting": "recombinant human AChE [3]; AChE over BChE", "result": "79-164"}, {"measurement": "efficacy, AChE inhibition", "setting": "recombinant human AChE [3]; colorimetric assay", "result": "78%±4.18"}, {"measurement": "IC50", "setting": "recombinant human AChE [3]; read-out: IC50, AChE inhibition, colorimetric assay", "result": 0.27, "unit": "µM"}, {"measurement": "efficacy, AChE inhibition", "setting": "recombinant human AChE [4]", "result": "116%±3.24"}, {"measurement": "IC50", "setting": "recombinant human AChE [4]; read-out: IC50, AChE inhibition", "result": "0.13 ± 0.02", "unit": "µM"}]}
{"smiles": "CCN(CCCc1ccccc1)CCCc1ccccc1", "note": "[alverine citrate]", "values": [{"measurement": "BChE inhibitory effect (activity call)", "setting": "recombinant human BChE [2]", "result": "confirmed by both assays"}]}
{"smiles": "CN(C)[C@@H](CCOc1cccc2ccccc12)c1ccccc1", "note": "[dapoxetine HCl]", "values": [{"measurement": "BChE inhibitory effect (activity call)", "setting": "recombinant human BChE [2]", "result": "confirmed by both assays"}]}
{"smiles": "CCN(CC)C(C)CN1c2ccccc2Sc2ccccc21", "note": "(stereo not drawn) [ethopropazine]", "values": [{"measurement": "IC50", "setting": "BChE; read-out: IC50, BChE inhibition, ref [41], [42]", "result": "0.21 to 0.3", "unit": "µM"}, {"measurement": "selectivity for BChE over AChE", "setting": "BChE; ref [39]", "result": "~ 1000 fold"}]}
{"smiles": "COc1ccc2c3c1O[C@H]1C[C@@H](O)C=C[C@@]31CCN(C)C2", "note": "[galantamine]", "values": [{"measurement": "IC50", "setting": "AChE; read-out: IC50, AChE inhibition, [40]", "result": 0.79, "unit": "µM"}, {"measurement": "selective inhibition of AChE activity versus BChE", "setting": "AChE", "result": 50, "unit": "fold"}]}
{"smiles": "CCN(CC)CCOC(=O)C(Cc1cccc2ccccc12)CC1CCCO1", "note": "(stereo not drawn) [nafronyl oxalate]", "values": [{"measurement": "BChE inhibitory effect (activity call)", "setting": "recombinant human BChE [2]", "result": "confirmed by both assays"}]}
{"smiles": "CC(CCc1ccccc1)NC(C)C(O)c1ccc(O)cc1", "note": "(stereo not drawn) [nylidrin hydrochloride]", "values": [{"measurement": "BChE inhibitory effect (activity call)", "setting": "recombinant human BChE [2]", "result": "confirmed by both assays"}]}
